Measurements taken from article PMC3331929 (Antiviral Research, 2012).
Like-named read-outs stand apart in the source and are kept apart here.

Columns and labels:
Format in all cases: biochemical
WNV NS2B/NS3pro [1] = target: T1, WNV NS2B/NS3pro (West Nile virus, UniProt Q9Q6P4); conditions: read-out: IC50 (μM) b; tetra-peptide substrate Bz-Nle-KRR-AMC
WNV NS2B/NS3pro [2] = target: T1, WNV NS2B/NS3pro; conditions: read-out: IC50 (μM) a; tri-peptide substrate Boc-GKR-AMC, inhibitor 0–40 μM
WNV NS2B/NS3pro [3] = target: T1, WNV NS2B/NS3pro; experiment: In vitro protease assay, percent inhibition at a fixed inhibitor concentration; conditions: aprotinin as positive control, final concentration 2–10 μM

T1 sequence (Q9Q6P4 1506-1683): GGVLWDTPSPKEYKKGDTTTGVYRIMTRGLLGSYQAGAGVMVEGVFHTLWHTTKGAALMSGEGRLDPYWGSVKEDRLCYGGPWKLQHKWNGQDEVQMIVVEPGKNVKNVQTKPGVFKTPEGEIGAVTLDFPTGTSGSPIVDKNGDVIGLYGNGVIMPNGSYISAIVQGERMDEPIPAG
T1 sequence (Q9Q6P4 1428-1467): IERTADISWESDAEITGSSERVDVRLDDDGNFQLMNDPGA

Compound | IC50 (WNV NS2B/NS3pro [1]) | IC50 (WNV NS2B/NS3pro [2]) | inhibition of WNV NS2B-NS3pro, positive control (WNV NS2B/NS3pro [3])
Oc1c(C(Nc2nccs2)c2ccccc2)ccc2cccnc12 (stereo not drawn) [compound 23] | 12.9 ± 0.54 µM | 9.85 ± 0.34 µM | –
aprotinin | – | – | 100%
